Reference: ChEMBL document CHEMBL5726478, “Histone demethylase inhibitors” (2019)

Target: T1, Lysine-specific demethylase 4C (Homo sapiens, UniProt Q9H3R0)
T1 sequence (Q9H3R0 whole entry): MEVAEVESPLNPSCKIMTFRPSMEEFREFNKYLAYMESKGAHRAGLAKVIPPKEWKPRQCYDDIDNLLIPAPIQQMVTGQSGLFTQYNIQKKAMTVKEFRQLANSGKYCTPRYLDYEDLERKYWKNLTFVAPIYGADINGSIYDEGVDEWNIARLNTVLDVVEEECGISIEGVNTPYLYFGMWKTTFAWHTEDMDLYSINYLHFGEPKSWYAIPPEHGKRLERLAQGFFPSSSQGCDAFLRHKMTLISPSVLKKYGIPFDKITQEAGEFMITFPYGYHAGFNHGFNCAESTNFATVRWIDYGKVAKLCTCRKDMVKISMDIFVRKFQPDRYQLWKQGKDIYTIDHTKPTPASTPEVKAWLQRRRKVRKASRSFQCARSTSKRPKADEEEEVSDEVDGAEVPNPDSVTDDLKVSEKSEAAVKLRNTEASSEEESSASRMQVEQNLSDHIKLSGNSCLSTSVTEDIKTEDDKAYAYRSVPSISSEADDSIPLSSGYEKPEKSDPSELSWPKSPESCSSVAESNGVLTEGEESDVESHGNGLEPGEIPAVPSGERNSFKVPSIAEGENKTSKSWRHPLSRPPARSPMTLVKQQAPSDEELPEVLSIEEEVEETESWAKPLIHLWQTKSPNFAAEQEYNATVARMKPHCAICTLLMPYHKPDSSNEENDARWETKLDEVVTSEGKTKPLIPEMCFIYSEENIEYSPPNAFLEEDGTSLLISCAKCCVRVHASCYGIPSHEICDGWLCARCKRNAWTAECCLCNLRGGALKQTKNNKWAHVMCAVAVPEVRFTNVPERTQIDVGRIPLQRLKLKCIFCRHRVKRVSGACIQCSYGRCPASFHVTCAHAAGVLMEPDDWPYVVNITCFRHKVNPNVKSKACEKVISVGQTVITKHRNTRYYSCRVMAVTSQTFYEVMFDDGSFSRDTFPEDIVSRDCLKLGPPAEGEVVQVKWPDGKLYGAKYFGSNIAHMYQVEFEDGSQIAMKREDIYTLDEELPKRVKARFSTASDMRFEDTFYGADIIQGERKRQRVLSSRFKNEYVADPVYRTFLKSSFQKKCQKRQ
Assay: JMJD2C Assay: The ability of test compounds to inhibit the activity of JMJD2C was determined in 384-well plate-format under the following reaction conditions: 0.3 nM JMJD2C, 300 nM H3K9me3-biotin labeled peptide (Anaspec cat #64360), 2 μM alpha-ketoglutaric acid in assay buffer of 50 mM HEPES, pH 7.3, 0.005% Brij35, 0.5 mM TCEP, 0.2 mg/ml BSA, 50 μM sodium L-ascorbate, and 2 μM ammonium iron(II) sulfate. Reaction product was determined quantitatively by TR-FRET after the addition of detection reagent Phycolink Streptavidin-allophycocyanin (Prozyme) and Europium-anti-di-methylated histone H3 lysine 9 (H3K9me2) antibody (PerkinElmer) in the presence of 5 mM EDTA in LANCE detection buffer (PerkinElmer) at a final concentration of 50 nM and 1 nM, respectively.The assay reaction was initiated by the following: 2 μl of the mixture of 900 nM H3K9me3-biotin labeled peptide and 6 μM alpha-ketoglutaric acid with 2 μl of 11-point serial diluted inhibitor in 3% DMSO were added to each well of the plate, followed by the addition of 2 μl of 0.9 nM JMJD2C to initiate the reaction. The reaction mixture was incubated at room temperature for 30 min, and terminated by the addition of 6 μl of 5 mM EDTA in LANCE detection buffer containing 100 nM Phycolink Streptavidin-allophycocyanin and 2 nM Europium-anti-H3K9me2 antibody. […]

IC50: < 100 nM
SMILES: CC(C)N1CCN(c2cccc(N(C)c3ccc(Oc4nc(O)c5ccncc5n4)cc3)c2)CC1
